These results are taken from publication PMC11988800, “A Comprehensive In Vitro and In Silico Approach for Targeting 4-Hydroxyphenyl Pyruvate Dioxygenase: Towards New Therapeutics for Alkaptonuria” (International Journal of Molecular Sciences, 2025).

Where two headings read alike, the source gives them in different places.

The target of series [1] is T1, human 4-HPPD (Homo sapiens, UniProt P32754). Nature of the series: Residence time evaluation by optimized jump dilution method in recombinant E. coli expressing human 4-HPPD.
T1 sequence (P32754 whole entry): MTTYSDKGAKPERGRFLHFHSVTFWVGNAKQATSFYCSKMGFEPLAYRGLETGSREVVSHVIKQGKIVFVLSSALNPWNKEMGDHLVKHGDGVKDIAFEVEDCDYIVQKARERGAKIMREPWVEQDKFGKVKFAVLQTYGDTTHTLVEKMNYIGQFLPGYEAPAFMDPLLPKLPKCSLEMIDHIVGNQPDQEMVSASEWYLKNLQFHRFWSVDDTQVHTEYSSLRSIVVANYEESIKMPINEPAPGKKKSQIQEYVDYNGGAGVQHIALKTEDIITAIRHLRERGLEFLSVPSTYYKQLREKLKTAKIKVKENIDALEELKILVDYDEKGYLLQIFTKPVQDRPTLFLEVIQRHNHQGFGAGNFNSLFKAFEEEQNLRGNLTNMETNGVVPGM
Protocol: (§1) 4-HPPD was initially incubated with each compound at saturating concentrations, and the exhaust medium (containing the inhibitor) was removed and replaced with fresh medium without the inhibitor, while the precursor (tyrosine) was added to the substrate. Enzyme activity was monitored by measuring the formation of ochronotic pigment consequent to the formation of HGA. Each inhibitor was analyzed in duplicate, and the analyses were repeated at least three times. In each experiment, control tests were set up as follows: a blank (control without induction), a control without inhibition, and a control with inhibition.
(§2) An optimized version of the jump dilution method was employed to evaluate the residence time of the novel candidate 4-HPPD inhibitors. […] This approach allowed precise tracking of reaction kinetics with high temporal resolution. After determining the IC50 and IC90 values for each tested compound, the enzyme was incubated with the inhibitors at concentrations corresponding to IC90. The exhaust medium containing the inhibitor was subsequently replaced with a fresh and inhibitor-free medium supplemented with tyrosine, the substrate precursor. The recovery of enzymatic activity was monitored over time using spectrophotometric analysis. This analytical approach provided precise measurements of the residence time for each inhibitor.
(§3) Each test was performed in duplicate, and the experiments were replicated at least three times. The tubes were half-capped and stirred at room temperature overnight.
(§4) The tubes were centrifuged at 2500× g for 10 min at 20 °C. The supernatant (exhaust medium) was discarded, while the pellet was resuspended in 7 mL of fresh LBK medium.
(§5) The tubes were incubated at 37 °C with stirring after taking the first sample (T0). Then, every 45 min for a period of 8 h, 220 μL were taken from each tube and placed in an Eppendorf tube, which was centrifuged at 13,000× g for 5 min at 4 °C. Subsequently, 200 μL of supernatant (pigmented medium) from each Eppendorf tube was transferred to a 96-well standard plate, and the absorbance at 405 nm was measured using a multimode plate reader (EnVision 2105, PerkinElmer Inc., Waltham, MA, USA).
(§6) Linear regression analysis was performed to calculate the slope values for each of the two curves corresponding to vs and v0 . These two parameters were then substituted into the equation below and reported for the nonlinear regression analysis of the data related to the tested compounds: Y=vsX+v0−vs /K (1−e^−KX) • Y: Absorbance value (HGA accumulation); • X: time (min); • vs : steady-state velocity; • v0: initial velocity; • K: koff .
In series [2] the target is T1, human 4-HPPD. Kind of series: Inhibition assay (IC50/IC90): ochronotic pigment formation in recombinant E. coli expressing human 4-HPPD.
Protocol: To do so, an inhibition assay was set up to test the compounds at different concentrations. The bacterial suspension was incubated in a medium containing 1 mM IPTG, 75 µM Tyr, and the tested inhibitor, monitoring the formation of the ochronotic pigment at 405 nm after 24 h.
The pre-inoculum was prepared in LB medium (Lysogeny Broth) supplemented with glucose (1% final concentration) and kanamycin sulfate (50 µg/mL final concentration). […] The pre-inoculum was incubated overnight at 37 °C under agitation. After measuring the OD600 of the pre-inoculum using LB medium as a blank, it was diluted to a final optical density of 0.1 in LB medium supplemented with kanamycin (LBK). The cell culture was shaken at 37 °C, and the OD600 was measured every 45 min until reaching the mid-log phase (0.6–0.8). Protein expression was then induced by adding isopropyl-β-D-thiogalactopyranoside (IPTG) [26, 27, 28].
Briefly, serial dilutions of the inhibitors were prepared in 96-deep well standard plates, starting from a stock solution of 10^−2 M, and then 600 µL of bacterial suspension (see Section 4.1.1) supplemented with 1 mM IPTG and 75 µg/mL Tyr were added into each well.
In parallel, the control tests were set up as follows: • - Blank: culture medium without cell suspension. • - Negative control: cell suspension without IPTG and Tyr. • - Not-Inhibited control: cell suspension supplemented with 1 mM IPTG and 75 µg/mL Tyr.
The plate was incubated on a microplate shaker at 800 rpm for 24 h.
The plates were centrifuged at 3200× g for 10 min at 4 °C. Subsequently, 150 μL of supernatant (pigmented medium) was transferred to a 96-well standard plate, and the absorbance was measured at 405 nm using a multimode plate reader (EnVision 2105, PerkinElmer Inc., Waltham, MA, USA). GraphPad Prism 8 was used to perform a nonlinear regression analysis (Log[Inhibitor] vs. response—Variable slope (four parameters)) and to obtain the inhibition curve of the compounds.
In series [3] the target is T1, human 4-HPPD.
Protocol: as §1, §2, §3, §4, §5, §6

Consider `CS(=O)(=O)c1ccc(C(=O)C2C(=O)CCCC2=O)c(Cl)c1COCC(F)(F)F` [c2, tembotrione], for which, in series [1], the koff was 0.000183 s⁻¹ and the residence time turned out to be 94 ± 23.5 min. The IC90 in series [2] is 500 nM. Further, the “half-life (t 1/2)” value in series [3] amounted to 1.0852 ± 0.27142 h.

For the molecule `CS(=O)(=O)c1ccc(C(=O)C2C(=O)CCCC2=O)c(Cl)c1` [c3, Sulcotrione], in series [1], the koff was 0.000167 s⁻¹, the residence time is 120 ± 57.6 min and the “residence time (τ)” value is listed as “higher residence time value than NTBC”. For the same molecule, the concentration for an effect of 90% (IC90) in series [2] was 200 nM. Further, the “half-life (t 1/2)” value in series [3] stood at 1.3911 ± 0.66537 h.

Take `CS(=O)(=O)c1ccc(C(=O)C2C(=O)CCCC2=O)c([N+](=O)[O-])c1` [c1, mesotrione]: in series [1], the koff is 6.67e-05 s⁻¹ and the residence time is 228 ± 27.6 min. In addition, the “residence time (τ)” value in series [1] (derived from koff) was “higher residence time value than NTBC”. In series [2], the 90% effect concentration (IC90) turned out to be 2000 nM.

On to `CC1(C)CC(=O)C(C(=O)c2ccc([N+](=O)[O-])cc2Cl)C(=O)C1` [c4, 5,5-dimethylcyclohexane-2-(2-chloro-4-nitrobenzoyl)-1,3-dione], for which, in series [3], the “half-life (t 1/2)” value is 1.4964 ± 0.23042 h.

As to `CC1(C)CC(=O)C=C(OC(=O)c2ccc(C(F)(F)F)cc2Cl)C1` [c7, 5,5-dimethyl-3-oxocyclohexenyl 2-chloro-4-(trifluoromethyl) benzoate], the “half-life (t 1/2)” value in series [3] came to 0.3749 ± 0.04297 h.

As for `O=C1CCCC(=O)C1C(=O)c1ccc([N+](=O)[O-])cc1Cl` [c6, 2-(2-chloro-4-nitrobenzoyl)1,3-cyclohexanedione], in series [1], the off-rate constant (koff) is 0.000133 s⁻¹ and the residence time amounted to 119 ± 4.87 min. The “residence time (τ)” value in series [1] (derived from koff) is reported as “higher residence time value than NTBC”. Further, the 90% effect concentration (IC90) in series [2] amounted to 8000 nM.

As to `CC1(C)CC(=O)C(C(=O)c2ccc(C(F)(F)F)cc2[N+](=O)[O-])C(=O)C1` [c5, 5,5-dimethyl-2-(2-nitro-4-(trifluoromethyl)benzoyl)cyclohexane-1,3-dione], in series [1], the off-rate constant (koff) is 5e-05 s⁻¹ and the residence time was determined as 352 ± 53.1 min. Besides, the “residence time (τ)” value in series [1] (derived from koff) was “higher residence time value than NTBC”. Besides, in series [2], the concentration for an effect of 90% (IC90) is 8000 nM.

For orientation: koff means the first-order rate constant of dissociation. One may read the IC90 as the concentration needed for an effect of 90%.
